Here are results for eleven substances from patent US20090104211A1, “Treatment of atherosclerosis” (AFFIRIS Forschungs-und Entwicklungs GmbH, priority 2004, published 2009).

For this experiment, the system named is anti-CETP monoclonal antibody (detects the CETP-derived amino acid sequence FGFPEHLLVDFLQSLS). The experiment is described as follows: ELISA screening of peptide libraries with anti-CETP monoclonal antibody for mimotope identification. In kind it is binding. The settings on record: 7 mer / 8 mer peptide libraries. From the text: The problem of the anti-CETP vaccine approach discussed above is that the vaccine formulation comprises a self peptide and therefore must break natural tolerance against self antigens. The invention describes a CETP mimotope that can be used for vaccination: The mimotope shall induce the production of antibodies against CETP. […] Thus, the induction of an anti-CETP antibody response is greatly facilitated. The mimotope is identified with a monoclonal antibody (mAb) and (commercially available) peptide libraries (e.g. according to 16). An anti-CETP monoclonal antibody is used that neutralizes CETP activity (17). This mAb detects a sequence within the C-terminal 26 amino acids of CETP necessary for neutral lipid transfer activity (18).
One monoclonal antibody used for the mimotope identification detects the CETP-derived amino acid sequence […] (=original epitope).
The mimotope has a preferred length of 5 to 15 amino acids. Two different libraries are used in ELISA assays to define mimotope sequences.
Library 1: This 7 mer library contains peptides with the following sequences (amino acid positions 1 to 7):
Library 2: This 8 mer library contains peptides with the following sequences (amino acid positions 1 to 8):
Position 1: all natural aa except of C (19 possibilities) Position 2: all natural aa except of C (19 possibilities) Position 3: all natural aa except of C (19 possibilities) Position 4: all natural aa except of C (19 possibilities) Position 5: all natural aa except of C (19 possibilities) Position 6: all natural aa except of C (19 possibilities) Position 7: all natural aa except of C (19 possibilities) Position 8: all natural aa except of C (19 possibilities)
(ELISA stands for enzyme-linked immunosorbent assay.)

Turning to ALKNKIP [7 mer peptide, CETP mimotope], the “mimotope detected by monoclonal antibody” value is listed as “detected by a monoclonal antibody”.
For ALKGKIP [7 mer peptide, CETP mimotope], the “mimotope detected by monoclonal antibody” value was “detected by a monoclonal antibody”.
As for ALKDKLP [7 mer peptide, CETP mimotope], the “mimotope detected by monoclonal antibody” value is reported as “detected by a monoclonal antibody”.
For ALKSKIP [7 mer peptide, CETP mimotope] the value was “detected by a monoclonal antibody”; for ALKYKLP [7 mer peptide, CETP mimotope], “detected by a monoclonal antibody”; for ALKNKLP [7 mer peptide, CETP mimotope], “detected by a monoclonal antibody”.
In the case of AVKGKLP [7 mer peptide, CETP mimotope], the “mimotope detected by monoclonal antibody” value was “detected by a monoclonal antibody”.
Turning to ALKDKVP [7 mer peptide, CETP mimotope], the “mimotope detected by monoclonal antibody” value is on record as “detected by a monoclonal antibody”.
Regarding ALKHKIP [7 mer peptide, CETP mimotope], the “mimotope detected by monoclonal antibody” value is recorded as “detected by a monoclonal antibody”.
As to ALKHKVP [7 mer peptide, CETP mimotope], the “mimotope detected by monoclonal antibody” value is on record as “detected by a monoclonal antibody”.
Turning to AAQKDKVP [8 mer peptide, CETP mimotope], the “mimotope detected by monoclonal antibody” value was “detected by a monoclonal antibody”.
